Here are results for 19 compounds from PubChem BioAssay AID248 (DTP/NCI, 2004).

In this assay the test system is L1210 leukemia ip in BDF1 mice, survival T/C. The assay can be described thus: NCI In Vivo Anticancer Drug Screen. Data for tumor model L1210 Leukemia (intraperitoneal) in B6D2F1 (BDF1) mice. Conditions: endpoint: mean survival time, higher = longer survival. The gist of the method: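 Antitumor effect is assessed in tumor-bearing animals. Survival in the compound arm is compared with a vehicle-dosed control arm and expressed as their quotient.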

The mark [1] stands for this setting: dose: 100.0 mg/kg/injection, schedule: Q01DX009 (ip), vehicle: Klucel (hydroxypropylcellulose) (HPC).
Setting [2] is: dose: 100.0 mg/kg/injection, schedule: Q04DX002 (ip), vehicle: saline.
Setting [3] is: dose: 200.0 mg/kg/injection, schedule: Q04DX002 (ip), vehicle: saline.
The mark [4] stands for this setting: dose: 400.0 mg/kg/injection, schedule: Q04DX002 (ip), vehicle: saline.
[5] abbreviates: dose: 100.0 mg/kg/injection, schedule: Q04DX003 (ip), vehicle: saline with Tween-80.
The mark [6] stands for this setting: dose: 200.0 mg/kg/injection, schedule: Q04DX003 (ip), vehicle: saline with Tween-80.
[7] abbreviates: dose: 400.0 mg/kg/injection, schedule: Q04DX003 (ip), vehicle: saline with Tween-80.
Where [8] appears, read: dose: 100.0 mg/kg/injection, schedule: Q04DX003 (ip), vehicle: Klucel (hydroxypropylcellulose) (HPC).
Where [9] appears, read: dose: 200.0 mg/kg/injection, schedule: Q01DX001 (ip), vehicle: saline.
The mark [10] stands for this setting: dose: 400.0 mg/kg/injection, schedule: Q01DX001 (ip), vehicle: saline.
[11] abbreviates: dose: 200.0 mg/kg/injection, schedule: Q04DX003 (ip), vehicle: Klucel (hydroxypropylcellulose) (HPC).
Setting [12] is: dose: 400.0 mg/kg/injection, schedule: Q04DX003 (ip), vehicle: Klucel (hydroxypropylcellulose) (HPC).
The mark [13] stands for this setting: dose: 25.0 mg/kg/injection, schedule: Q01DX009 (ip), vehicle: saline.
The mark [14] stands for this setting: dose: 50.0 mg/kg/injection, schedule: Q01DX009 (ip), vehicle: saline.
The mark [15] stands for this setting: dose: 100.0 mg/kg/injection, schedule: Q01DX009 (ip), vehicle: saline.
Where [16] appears, read: dose: 100.0 mg/kg/injection, schedule: Q04DX003 (ip), vehicle: saline.
The mark [17] stands for this setting: dose: 200.0 mg/kg/injection, schedule: Q04DX003 (ip), vehicle: saline.
Setting [18] is: dose: 400.0 mg/kg/injection, schedule: Q04DX003 (ip), vehicle: saline.

Several values for one entry are separate records, joined by “and”; a condition that tells them apart may be missing. Identical values can stand only once. Inconclusive results and toxic doses are left out.

With `COC(=O)CCc1c[nH]c2ccc(N(CCCl)CCCl)cc12`, the T/C is, setting by setting: (dose: 0.06 mg/kg/injection, schedule: Q01DX015 (ip), vehicle: carboxymethylcellulose (CMC)) 104 % of control; (dose: 0.13 mg/kg/injection, schedule: Q01DX015 (ip), vehicle: carboxymethylcellulose (CMC)) 105 % of control; (dose: 0.25 mg/kg/injection, schedule: Q01DX015 (ip), vehicle: carboxymethylcellulose (CMC)) 110 % of control; (dose: 0.5 mg/kg/injection, schedule: Q01DX015 (ip), vehicle: carboxymethylcellulose (CMC)) 120 % of control; (dose: 1.0 mg/kg/injection, schedule: Q01DX015 (ip), vehicle: carboxymethylcellulose (CMC)) 100 % of control; (dose: 1.9 mg/kg/injection, schedule: Q01DX009 (ip), vehicle: other) 118 % of control. For the same compound, the T/C (dose: 3.0 mg/kg/injection, schedule: Q01DX015 (ip), vehicle: carboxymethylcellulose (CMC)) is 119 % of control; the T/C (dose: 3.8 mg/kg/injection, schedule: Q04DX003 (ip), vehicle: saline) was 108 % of control; the T/C (dose: 7.5 mg/kg/injection, schedule: Q04DX003 (ip), vehicle: saline) is 115 % of control; the T/C (dose: 15.0 mg/kg/injection, schedule: Q01DX009 (ip), vehicle: other) is 123 % of control; the T/C (dose: 30.0 mg/kg/injection, schedule: Q04DX003 (ip), vehicle: saline) is 177 % of control.
For the compound `COc1ccc(OC)c(NC(=O)Nc2cc(C(F)(F)F)ccc2Cl)c1`, the T/C was 104 % of control under setting [1] and 91 % of control (dose: 400.0 mg/kg/injection, schedule: Q01DX009 (ip), vehicle: Klucel (hydroxypropylcellulose) (HPC)).
Turning to `O=[N+]([O-])c1ccccc1N1N=NC2CC/C(=C\c3ccc(Cl)cc3)C21N1CCOCC1` (centres undefined), the T/C was 108 % of control under setting [2], 89 % of control under setting [3] and 92 % of control under setting [4].
Consider `O=C1OC(c2ccccc2)CC1N1CCCCC1` (centres undefined), for which the T/C by setting is: (dose: 100.0 mg/kg/injection, schedule: Q01DX001 (ip), vehicle: saline sonified) 109 % of control; (dose: 200.0 mg/kg/injection, schedule: Q01DX001 (ip), vehicle: saline sonified) 105 % of control.
With `Nc1ccc(C(=O)Oc2ccc([N+](=O)[O-])cc2)cc1`, the T/C is 98 % of control under setting [5], 88 % of control under setting [6] and 86 % of control under setting [7].
In the case of `C1=CC2CC3(OCCO3)C2C1` (centres undefined), the T/C runs as follows: under setting [5], 95 % of control; under setting [6], 92 % of control; under setting [7], 92 % of control.
`CCC#CC(=O)OCCCC`: the T/C is 93 % of control under setting [2], 104 % of control under setting [3] and 96 % of control under setting [4].
For `C[As](=O)(O)c1ccc(N)cc1`, the T/C (dose: 25.0 mg/kg/injection, schedule: Q04DX003 (ip), vehicle: Klucel (hydroxypropylcellulose) (HPC)) was 95 % of control; the T/C (dose: 50.0 mg/kg/injection, schedule: Q04DX003 (ip), vehicle: Klucel (hydroxypropylcellulose) (HPC)) was 93 % of control; the T/C under setting [8] is 90 % of control and 92 % of control.
With `CC/C(=C(\CC)c1ccc(OC)cc1)c1ccc(O)cc1`, the T/C (dose: 15.0 mg/kg/injection, schedule: Q01DX Z (sc), vehicle: steriod suspending solution) is 105 % of control; the T/C (dose: 30.0 mg/kg/injection, schedule: Q01DX Z (sc), vehicle: steriod suspending solution) was 106 % of control; the T/C (dose: 60.0 mg/kg/injection, schedule: Q01DX Z (sc), vehicle: steriod suspending solution) is 96 % of control and 103 % of control; the T/C (dose: 90.0 mg/kg/injection, schedule: Q01DX Z (sc), vehicle: steriod suspending solution) was 103 % of control; the T/C (dose: 135.0 mg/kg/injection, schedule: Q01DX Z (sc), vehicle: steriod suspending solution) was 102 % of control; the T/C under setting [9] was 96 % of control. Further, the T/C was 100 % of control (dose: 200.0 mg/kg/injection, schedule: Q01DX Z (sc), vehicle: steriod suspending solution); 97 % of control (dose: 250.0 mg/kg/injection, schedule: Q01DX015 (sc), vehicle: steriod suspending solution); 104 % of control under setting [10]; 93 % of control (dose: 500.0 mg/kg/injection, schedule: Q01DX015 (sc), vehicle: steriod suspending solution); 95 % of control (dose: 750.0 mg/kg/injection, schedule: Q01DX015 (sc), vehicle: steriod suspending solution); 98 % of control (dose: 800.0 mg/kg/injection, schedule: Q01DX001 (ip), vehicle: saline). Also, the T/C (dose: 1000.0 mg/kg/injection, schedule: Q01DX015 (sc), vehicle: steriod suspending solution) was 90 % of control.
With `Cc1ccc(S(=O)(=O)C=C(c2ccccc2)c2ccccc2)cc1`, the T/C (dose: 100.0 mg/kg/injection, schedule: Q01DX001 (ip), vehicle: Klucel (hydroxypropylcellulose) (HPC)) was 98 % of control; the T/C under setting [8] is 100 % of control; the T/C (dose: 200.0 mg/kg/injection, schedule: Q01DX001 (ip), vehicle: Klucel (hydroxypropylcellulose) (HPC)) was 96 % of control; the T/C under setting [11] was 95 % of control; the T/C (dose: 400.0 mg/kg/injection, schedule: Q01DX001 (ip), vehicle: Klucel (hydroxypropylcellulose) (HPC)) was 104 % of control; the T/C under setting [12] is 95 % of control.
`CCN(CC)CC(=O)NCC(CCN1CCCCC1)(c1cccc2ccccc12)C(C)C` (centres undefined): the T/C is 101 % of control under setting [13], 115 % of control under setting [14] and 112 % of control under setting [15].
As for `CCCCCCCC(=O)Nc1ccc(C)cc1`, the T/C is 97 % of control (dose: 50.0 mg/kg/injection, schedule: Q01DX009 (ip), vehicle: Klucel (hydroxypropylcellulose) (HPC)); 95 % of control under setting [1]; 99 % of control under setting [8]; 98 % of control (dose: 200.0 mg/kg/injection, schedule: Q01DX009 (ip), vehicle: Klucel (hydroxypropylcellulose) (HPC)); 98 % of control under setting [11].
For the compound `Cc1cc(-c2ccc(NC(=O)Nc3cccc(C4=NCCN4)c3)c(C)c2)ccc1NC(=O)Nc1cccc(C2=NCCN2)c1`, the T/C is, setting by setting: (dose: 31.2 mg/kg/injection, schedule: Q01DX Z (ip), vehicle: methylcellulose (MC)) 97 % of control; (dose: 62.5 mg/kg/injection, schedule: Q01DX Z (ip), vehicle: methylcellulose (MC)) 103 % of control; (dose: 125.0 mg/kg/injection, schedule: Q01DX Z (ip), vehicle: methylcellulose (MC)) 103 % of control.
Turning to `COC(=O)c1cccc(C)n1`, the T/C is 94 % of control (dose: 100.0 mg/kg/injection, schedule: Q01DX001 (ip), vehicle: saline); 104 % of control under setting [16]; 100 % of control under setting [9]; 97 % of control under setting [17]; 96 % of control under setting [10]; 92 % of control under setting [18].
As for `O=C1Nc2nc(=O)nc3[nH]c(=O)nc(n23)N1`, the T/C runs as follows: under setting [13], 106 % of control; under setting [14], 98 % of control; (dose: 50.0 mg/kg/injection, schedule: Q04DX003 (ip), vehicle: saline) 110 % of control; under setting [15], 98 % of control; under setting [16], 103 % of control.
Take `O=C(O)C(S)C(S)C(=O)O.[As]` (centres undefined): the T/C runs as follows: (dose: 12.5 mg/kg/injection, schedule: Q01DX009 (ip), vehicle: saline) 96 % of control; under setting [13], 104 % of control; under setting [14], 98 % of control.
For the compound `O=C(O)C(SSC(C(=O)O)(c1ccccc1)c1ccccc1)(c1ccccc1)c1ccccc1`, the T/C reads like this: under setting [8], 106 % of control; under setting [11], 102 % of control; under setting [12], 88 % of control.
In the case of `Cc1cccc(/C=N\NC(=O)CCCC(=O)N/N=C/c2cccc(C)n2)n1`, the T/C (dose: 50.0 mg/kg/injection, schedule: Q01DX001 (ip), vehicle: carboxymethylcellulose (CMC)) is 88 % of control and the T/C (dose: 100.0 mg/kg/injection, schedule: Q01DX001 (ip), vehicle: carboxymethylcellulose (CMC)) was 90 % of control.
As to `CCOC(=O)c1cnc2c(OC)cccc2c1Cl`, the T/C under setting [15] is 98 % of control; the T/C under setting [16] was 102 % of control; the T/C (dose: 200.0 mg/kg/injection, schedule: Q01DX009 (ip), vehicle: saline) is 96 % of control; the T/C under setting [17] is 109 % of control; the T/C under setting [18] is 98 % of control.
